From the RepoRT retention time repository come the findings set out here.

The nature of the data set: HILIC, Waters ACQUITY UPLC BEH Amide, 100 × 2.1 mm, 1.7 µm; A: water + 0.125% formic acid + 10 mM ammonium formate; B: 5% water + 95% acetonitrile + 0.125% formic acid + 10 mM ammonium formate; gradient (min/%B) 0/100 2/100 7.7/70 9.5/40 10.25/30 12.75/100 17/100. As to conditions: stereoisomer not certain.
Regarding `O=c1[nH]cnc2c1ncn2C1OC(CO)C(O)C1O` (centres undefined) [Inosine], the LC retention time was determined as 6.19 min.
For the compound `Nc1c2c(nc3c1CCC3)CCCC2` [Ipidacrine], the LC retention time was determined as 3.33 min.
On to `CC(C)Oc1ccc2c(=O)c(-c3ccccc3)coc2c1` [Ipriflavone], for which the LC retention time was found to be 0.94 min.
As for `CCCCC1=NC2(CCCC2)C(=O)N1Cc1ccc(-c2ccccc2-c2nn[nH]n2)cc1` [Irbesartan], the LC retention time worked out at 1.16 min.
Regarding `CCc1c2c(nc3ccc(OC(=O)N4CCC(N5CCCCC5)CC4)cc13)-c1cc3c(c(=O)n1C2)COC(=O)C3(O)CC` (centres undefined) [Irinotecan], the LC retention time stood at 5.03 min.
As to `Nc1nc(N)nc(-c2cc(Cl)ccc2Cl)n1` [Irsogladine], the LC retention time amounted to 1.25 min.
For `CC(C)CN` [Isobutylamine] the value was 5.04 min; for `CC(C)C(=O)O` [Isobutyric acid], 1.77 min.
`CCC(C)C(N)C(=O)O` (centres undefined) [Isoleucine]: the LC retention time was found to be 7.18 min.
As for `OCC1OC(OCC2OC(O)C(O)C(O)C2O)C(O)C(O)C1O` (centres undefined) [Isomaltose], the LC retention time stood at 7.19 min.
For `CC(C)=CCNc1ncnc2nc[nH]c12` [Isopentenyladenine], the LC retention time came out at 1.81 min.
Under `COc1cc(-c2oc3cc(O)cc(O)c3c(=O)c2OC2OC(COC3OC(C)C(O)C(O)C3O)C(O)C(O)C2O)ccc1O` (centres undefined) [Isorhamnetin-3-O-rutinoside] stands 6.02 min; under `COc1cc(-c2oc3cc(O)cc(O)c3c(=O)c2OC2OC(CO)C(O)C(O)C2O)ccc1O` (centres undefined) [Isorhamnetin-3-glucoside], 4.49 min.
For the compound `CC(C)CC(=O)OC(CC(=O)[O-])C[N+](C)(C)C` [Isovaleryl-L-carnitine], the LC retention time is 5.36 min.
For the compound `Nc1nc2[nH]c(=O)cnc2c(=O)[nH]1` [Isoxanthopterin], the LC retention time came to 6.41 min.
Regarding `COC(=O)C1=C(C)NC(C)=C(C(=O)OC(C)C)C1c1cccc2nonc12` (centres undefined) [Isradipine], the LC retention time was 0.95 min.
On to `COc1ccc(C(=O)NCc2ccc(OCCN(C)C)cc2)cc1OC` [Itopride], for which the LC retention time turned out to be 3.65 min.
Turning to `CCC(C)n1ncn(-c2ccc(N3CCN(c4ccc(OCC5COC(Cn6cncn6)(c6ccc(Cl)cc6Cl)O5)cc4)CC3)cc2)c1=O` (centres undefined) [Itraconzaole], the LC retention time is 0.97 min.
For `CC1OC(OCC2OC(Oc3c(-c4ccc(O)cc4)oc4cc(O)cc(O)c4c3=O)C(O)C(O)C2O)C(O)C(O)C1O` (centres undefined) [Kaempferol-3-O-rutinoside] the value was 6.09 min.
Regarding `O=c1c(O)c(-c2ccc(O)cc2)oc2cc(O)cc(O)c12` [Kaempferol], the LC retention time was determined as 1.4 min.
Consider `CC(=O)N1CCN(c2ccc(OCC3COC(Cn4ccnc4)(c4ccc(Cl)cc4Cl)O3)cc2)CC1` (centres undefined) [Ketoconazole], for which the LC retention time came out at 1.73 min.
On to `CC(C)C(=O)C(=O)O` [Ketoisovaleric acid], for which the LC retention time is 2.84 min.
As to `CN1CCC(=C2c3ccccc3CC(=O)c3sccc32)CC1` [Ketotifen], the LC retention time came out at 2.71 min.
For `COC1C(O)CC(=O)OC(C)CC=CC=CC(O)C(C)CC(CC=O)C1OC1OC(C)C(OC2CC(C)(O)C(OC(=O)CC(C)C)C(C)O2)C(N(C)C)C1O` (centres undefined) [Kitasamycin], the LC retention time worked out at 2.04 min.
Under `O=C(O)c1cc(=O)c2ccccc2[nH]1` [Kynurenic acid] stands 6.15 min; under `Nc1ccccc1C(=O)CC(N)C(=O)O` (centres undefined) [Kynurenine], 6.98 min.
Take `CS(=O)(=O)Nc1ccc(Cc2noc(-c3ccc4[nH]cc(CCN)c4c3)n2)cc1` [L-694,247]: the LC retention time was 5.25 min.
As to `NC(CCC(=O)NC(CSSCC(N)C(=O)O)C(=O)NCC(=O)O)C(=O)O` [L-Cysteine-glutathione disulfide], the LC retention time came to 10.2 min.
For `NC(=O)NCCCC[C@H](N)C(=O)O` [L-Homocitrulline] the value was 8.73 min; for `CCOC(=O)C1=C(C)NC(C)=C(C(=O)OCC)C1c1ccccc1C=CC(=O)OC(C)(C)C` [Lacidipine], 0.94 min; for `CC(O)C(N)=O` (centres undefined) [Lactamide], 1.74 min.
As for `OCC(O)C(O)C(OC1OC(CO)C(O)C(O)C1O)C(O)CO` (centres undefined) [Lactitol], the LC retention time turned out to be 8.99 min.
`Nc1ccn(C2CSC(CO)O2)c(=O)n1` (centres undefined) [Lamivudine]: the LC retention time came out at 3.4 min.
On to `Nc1nnc(-c2cccc(Cl)c2Cl)c(N)n1` [Lamotrigine], for which the LC retention time turned out to be 1.98 min.
For the compound `CC(C)OC(=O)CCCC=CCC1C(O)CC(O)C1CCC(O)CCc1ccccc1` (centres undefined) [Latanoprost], the LC retention time was 1.06 min.
Regarding `CCCCCCCCCCCC(=O)OC(CC(=O)[O-])C[N+](C)(C)C` [Lauroyl-L-carnitine], the LC retention time came out at 3.63 min.
For the compound `N#Cc1ccc(C(c2ccc(C#N)cc2)n2cncn2)cc1` [Letrozol], the LC retention time is 0.98 min.
With `CC(C)CC(N)C(=O)NC(C)C(=O)O` (centres undefined) [Leu-Ala], the LC retention time came to 5 min.
Take `CC(C)CC(N)C(=O)NC(CCCN=C(N)N)C(=O)O` (centres undefined) [Leu-Arg]: the LC retention time is 8.86 min.
`CC(C)CC(N)C(=O)N1CCCC1C(=O)O` (centres undefined) [Leu-Pro]: the LC retention time worked out at 7.32 min.
As for `CC(C)CC(N)C(=O)O` (centres undefined) [Leucine], the LC retention time is 7.08 min.
As for `c1ccc(C2CN3CCSC3=N2)cc1` (centres undefined) [Levamisole], the LC retention time came out at 2.95 min.
With `CCC(C(N)=O)N1CCCC1=O` (centres undefined) [Levetiracetam], the LC retention time turned out to be 1.45 min.
Turning to `O=C(O)COCCN1CCN(C(c2ccccc2)c2ccc(Cl)cc2)CC1` (centres undefined) [Levocetirizine], the LC retention time was found to be 2.9 min.
As to `C#CC1(O)CCC2C3CCC4=CC(=O)CCC4C3CCC21CC` (centres undefined) [Levonorgestrel], the LC retention time was found to be 0.99 min.
Turning to `CCN1CCCC1CNC(=O)c1cc(S(N)(=O)=O)ccc1OC` (centres undefined) [Levosulpiride], the LC retention time is 4.37 min.
For the compound `CCN(CC)CC(=O)Nc1c(C)cccc1C` [Lidocaine], the LC retention time was 1.97 min.
For `C=C(C)C1CC=C(C)CC1` (centres undefined) [Limonene] the value was 0.92 min; for `C=CC(C)(O)CCC=C(C)C` (centres undefined) [Linalool], 0.97 min; for `CC(=O)NCC1CN(c2ccc(N3CCOCC3)c(F)c2)C(=O)O1` (centres undefined) [Linezolide], 1.15 min.
As for `CCCCCC=CCC=CCCCCCCCC(=O)OC(CC(=O)[O-])C[N+](C)(C)C` (centres undefined) [Linoleoylcarnitine], the LC retention time stood at 3.1 min.
As for `O=C1N(c2ccccc2)c2ccccc2C1(Cc1ccncc1)Cc1ccncc1` [Linopirdine], the LC retention time amounted to 1.17 min.
For the compound `NC(=O)CCCCC1CCSS1` (centres undefined) [Lipoamide], the LC retention time was determined as 1.25 min.
Regarding `O=C1CC(c2ccc(O)cc2)Oc2cc(O)ccc21` (centres undefined) [Liquiritigenin], the LC retention time came to 1.3 min.
Turning to `CN1C(CC(=O)c2ccccc2)CCCC1CC(O)c1ccccc1` (centres undefined) [Lobeline A], the LC retention time was 2.02 min.
With `CN(CCCN1c2ccccc2CCc2ccccc21)CC(=O)c1ccc(Cl)cc1` [Lofepramine], the LC retention time was determined as 1.91 min.
On to `CC(Oc1c(Cl)cccc1Cl)C1=NCCN1` (centres undefined) [Lofexidine], for which the LC retention time was determined as 2.65 min.
As to `COc1ccc(CN2CCN(C(c3ccc(F)cc3)c3ccc(F)cc3)CC2)c(OC)c1OC` [Lomerizine], the LC retention time worked out at 1.7 min.
For `CC(=O)CCCCn1cnc2c1c(=O)n(C)c(=O)n2C` [Lomifylline], the LC retention time worked out at 1.09 min.
For `CCOC(=O)N1CCC(=C2c3ccc(Cl)cc3CCc3cccnc32)CC1` [Loratadine], the LC retention time worked out at 1.11 min.
Consider `O=C1Nc2ccc(Cl)cc2C(c2ccccc2Cl)=NC1O` (centres undefined) [Lorazepam], for which the LC retention time was 1.33 min.
With `CCCCc1nc(Cl)c(CO)n1Cc1ccc(-c2ccccc2-c2nn[nH]n2)cc1` [Losartan], the LC retention time came to 1.27 min.
For `CCOC(=O)OC1(C(=O)OCCl)CCC2C3CCC4=CC(=O)C=CC4(C)C3C(O)CC21C` (centres undefined) [Loteprednol Etabonate], the LC retention time worked out at 0.97 min.
For the compound `CN1CCN(C2=Nc3ccccc3Oc3ccc(Cl)cc32)CC1` [Loxapine], the LC retention time stood at 2.18 min.
`CC(C(=O)O)c1ccc(CC2CCCC2=O)cc1` (centres undefined) [Loxoprofen]: the LC retention time turned out to be 1.09 min.
As for `O=c1[nH]c(=O)c2nccnc2[nH]1` [Lumazine], the LC retention time stood at 2.49 min.
Regarding `NCCCCC(N)C(=O)NCC(=O)O` (centres undefined) [Lys-Gly], the LC retention time is 9.84 min.
Turning to `CC(C)C(NC(=O)C(N)CCCCN)C(=O)O` (centres undefined) [Lys-Val], the LC retention time amounted to 9.38 min.
Consider `NCCCCC(N)C(=O)O` (centres undefined) [Lysine], for which the LC retention time turned out to be 9.54 min.
Regarding `CC(C)c1ccc2c(c1)c(SC(C)(C)C)c(CC(C)(C)C(=O)O)n2Cc1ccc(Cl)cc1` [MK-886], the LC retention time is 0.96 min.
Consider `NC(=O)C=CC(=O)O` [Maleamic acid], for which the LC retention time turned out to be 1.12 min.
Regarding `Cc1occc(=O)c1O` [Maltol], the LC retention time is 1.32 min.
Under `OCC1OC(OC2C(CO)OC(O)C(O)C2O)C(O)C(O)C1O` (centres undefined) [Maltose] stands 8.75 min; under `CNCCCC12CCC(c3ccccc31)c1ccccc12` [Maprotiline], 2.66 min; under `CC1(C)SC2C(N=CN3CCCCCC3)C(=O)N2C1C(=O)O` (centres undefined) [Mecillinam], 4.28 min.
Under `CC(=O)C1(O)CCC2C3CC(C)C4=CC(=O)CCC4(C)C3CCC21C` (centres undefined) [Medroxyprogesterone] stands 1.01 min.
For `CC(=O)OC1(C(C)=O)CCC2C3C=C(C)C4=CC(=O)CCC4(C)C3CCC21C` (centres undefined) [Megestrol Acetate] the value was 0.96 min; for `COc1ccc2[nH]cc(CCNC(C)=O)c2c1` [Melatonin], 1.24 min.
For `CC1CCN(CCCC(=O)c2ccc(F)cc2)CC1` [Melperone], the LC retention time worked out at 2.12 min.
